Test [1] concerns the target T1, human recombinant CD38 enzyme (Homo sapiens, UniProt P28907).
T1 construct: purchased R&D Systems H7006
T1 sequence (P28907 1-300): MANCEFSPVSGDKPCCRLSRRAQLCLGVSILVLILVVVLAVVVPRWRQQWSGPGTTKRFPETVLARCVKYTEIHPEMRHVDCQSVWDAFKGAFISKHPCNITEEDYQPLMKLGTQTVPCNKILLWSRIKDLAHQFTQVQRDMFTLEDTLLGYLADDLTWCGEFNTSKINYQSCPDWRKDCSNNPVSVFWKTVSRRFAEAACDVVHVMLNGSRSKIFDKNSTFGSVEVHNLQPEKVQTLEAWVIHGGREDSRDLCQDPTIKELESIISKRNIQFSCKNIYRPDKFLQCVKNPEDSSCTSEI
The test is described as follows: Human recombinant enzyme assay (fluorimetric CD38 enzyme assay, ε-NAD substrate). In kind it is biochemical. Conditions: recombinant CD38 100 ng/ml, ε-NAD 100 µM, pH = 6.0, 37°C, reaction time 30 min; read-out: IC50 (nM) ENAD. How it is done:
Enzyme assay on human recombinant CD38 enzyme were performed in order to determine the in vitro potency of the newly synthesized compounds. IC50 values were determined for the test compounds and used to explore the structure-activity relationships (SAR).
(§1) N6-etheno-NAD (ε-NAD), a NAD analogue previously shown to be a convenient substrate of CD38 enzyme activity (Graeff et al. J. Biol. Chem. 269, pp 30260-30367, […]) was used to measure the activity of human recombinant CD38 and cell surface enzyme activity.
A fluorimetric CD38 enzyme assay was performed as described by Graeff et al. The reaction was started with 10 µl of N6-etheno-NAD (ε-NAD) substrate, final concentration 100 µM, in a final volume of 0.1 ml buffered with 50 mM HEPES, 0.05% BRIJ, pH = 6.0 containing 100 ng/ml recombinant CD38 (R&D Systems, H7006). Cleavage of ε-NAD, which causes a 10-fold fluorescence enhancement, was continuously followed at 37°C in a BMG Polarstar spectrofluorometer at an emission wavelength of 410 nm and an excitation of 300 nm, reaction time was 30 min. NADase activity was expressed as Δ relative fluorescence/min. The rate of enzyme reactions were compared in the presence and absence of inhibitor molecule, the IC50 values were calculated with Biostat Speed program.

For test [2], the target named is T2, natural cell surface human CD38 enzyme (Homo sapiens, UniProt P28907).
T2 construct: The A549 cells express active CD38 enzyme on the cell surface; endogenous in cells; host or cells: A549 human lung epithelial cells (ATCC CCL 185)
T2 sequence (P28907 1-300): T1 sequence (P28907 1-300)
The test can be described thus: Cell surface enzyme assay on A549 cells. The conditions noted are these: A549 human lung epithelial cells, pre-incubated 15 min, ε-NAD 100 µM, 60 min, pH=7.4. The format is cell-based. How it is done: A549 human lung epithelial cells were used as enzyme source. The A549 cells express active CD38 enzyme on the cell surface.
as §1
Type II-like human lung epithelial cells A 549 (ATCC CCL 185) were grown in RPMI 1640 medium supplemented with 10% fetal calf serum, 2mM 1-glutamine and penicillin/streptomycin 1% in a humidified incubator with an atmosphere of 95% air and 5% CO2 at 37 °C. At about 70-80% confluence, cells were detached with trypsin/EDTA solution to form a cell suspension and counted. Cell viability was higher as 95% using trypan blue dye. Cells were plated at a density of 500.000 cells/well (24 well plate), before 24 hours of starting the enzyme assay. The medium was removed and replaced by assay buffer (20 mM HEPES, pH=7.4 containing 140 mM NaCl, 5 mM KCl, 1 mM MgSO4 1 mM CaCl2, 1mM Na2HPO4, 5.5 mM glucose).
A549 cells (800.000/well, 500 µl) were pre-incubated in the presence and absence of inhibitors for 15 min before the addition of ε-NAD, final substrate concentration was 100 µM. After 60 min, the plate was centrifuged and 100 µl of supernatant was removed and measured fluorimetrically in BMG Polarstar spectrofluorimeter at an emission wavelength of 410 nm and an excitation of 300 nm. The mean difference in the fluorescence between reaction stopped at 0 and 60 min was used an arbitrary unit of NADase activity. The NADase activity in the absence and presence of inhibitors were compared and IC50 values were calculated.

Molecules are shown by their SMILES.

For orientation: IC50 means the concentration that gives 50% inhibition. Regarding `O=C1N/C(=C\c2ccncc2)C(=O)N1c1ccc(Cl)cc1` [Compound 2, 3-(4-Chloro-phenyl)-5-[1-pyridin-4-yl-meth-(Z)-ylidene]-imidazolidine-2,4-dione], the IC50 in test [1] worked out at 30 nM; in test [2], 181 nM.
Taken in the same sequence, the figures for `CCCCc1ccc(N2C(=O)N/C(=C\c3ccncc3)C2=O)cc1` [Compound 24, 3-(4-Butyl-phenyl)-5-[1-pyridin-4-yl-meth-(Z)-ylidene]-imidazolidine-2,4-dione] were 80 nM and 297 nM.
Taken in the same sequence, the figures for `O=C(c1cccc(N2C(=O)N/C(=C\c3ccncc3)C2=O)c1)N1CCOCC1` [Compound 28, 3-[3-(Morpholine-4-carbonyl)-phenyl]-5-[1-pyridin-4-yl-meth-(Z)-ylidene]-imidazolidine-2,4-dione] were 50 nM and 359 nM.
Taken in the same sequence, the figures for `O=C1N/C(=C\c2ccncc2)C(=O)N1c1ccc(I)cc1` [Compound 33, 3-(4-Iodo-phenyl)-5-[1-pyridin-4-yl-meth-(Z)-ylidene]-imidazolidine-2,4-dione] were 38 nM and 272 nM.
As to `O=C1N/C(=C\c2ccncc2)C(=O)N1C1CCC(O)CC1` (stereo not drawn) [Compound 40, 3-(4-Hydroxy-cyclohexyl)-5-[1-pyridin-4-yl-meth-(Z)-ylidene]-imidazolidine-2,4-dione], the IC50 in test [1] was 214 nM.
Still for that read-out and setting: as for `CCCN1C(=O)N/C(=C\c2ccncc2)C1=O` [Compound 41, 3-Propyl-5-[1-pyridin-4-yl-meth-(Z)-ylidene]-imidazolidine-2,4-dione], the figure is 80 nM; as for `CCC(C)N1C(=O)N/C(=C\c2ccncc2)C1=O` (stereo not drawn) [Compound 42, 3-sec-Butyl-5-[1-pyridin-4-yl-meth-(Z)-ylidene]-imidazolidine-2,4-dione], 868 nM.
On the same count and under the same terms, the result for `CCOC(=O)CN1C(=O)N/C(=C\c2ccncc2)C1=O` [Compound 43, {2,5-Dioxo-4-[1-pyridin-4-yl-meth-(Z)-ylidene]-imidazolidin-1-yl}-acetic acid ethyl ester] reads 224 nM; that for `O=C1N/C(=C\c2ccncc2)C(=O)N1CCCN1CCOCC1` [Compound 44, 3-(3-Morpholin-4-yl-propyl)-5-[1-pyridin-4-yl-meth-(Z)-ylidene]-imidazolidine-2,4-dione], 151 nM; that for `C[C@@H]1CN(C(=O)c2ccc(N3C(=O)N/C(=C\c4ccncc4)C3=O)cc2)C[C@H](C)O1` [Compound 45, 3-[4-((2R,6S)-2,6-Dimethyl-morpholine-4-carbonyl)-phenyl]-5-[1-pyridin-4-yl-meth-(Z)-ylidene]-imidazolidine-2,4-dione], 34 nM.
Same read-out and setting: as for `O=C(O)CN1C(=O)N/C(=C\c2ccncc2)C1=O` [Compound 46, {2,5-Dioxo-4-[1-pyridin-4-yl-meth-(Z)-ylidene]-imidazolidin-1-yl}-acetic acid], the figure is 490 nM.
As for `CC1CCN(C(=O)c2ccc(N3C(=O)N/C(=C\c4ccncc4)C3=O)cc2)CC1` [Compound 47, 3-[4-(4-Methyl-piperidine-1-carbonyl)-phenyl]-5-[1-pyridin-4-yl-meth-(Z)-ylidene]-imidazolidine-2,4-dione], the IC50 in test [1] is 74 nM.
Still for that read-out and setting: as for `O=C(c1ccc(N2C(=O)N/C(=C\c3ccncc3)C2=O)cc1)N1CCCC1` [Compound 48, 5-[1-Pyridin-4-yl-meth-(Z)-ylidene]-3-[4-(pyrrolidine-1-carbonyl)-phenyl]-imidazolidine-2,4-dione], the figure is 52 nM; as for `O=C(NC1CCCC1)c1ccc(N2C(=O)N/C(=C\c3ccncc3)C2=O)cc1` [Compound 49, N-Cyclopentyl-4-{2,5-dioxo-4-[1-pyridm-4-yl-meth-(Z)-ylidene]-imidazolidm-1-yl}-benzamide], 50 nM.
On the same count and under the same terms, the result for `O=C(NC1CC1)c1ccc(N2C(=O)N/C(=C\c3ccncc3)C2=O)cc1` [Compound 50, N-Cyclopropyl-4-{2,5-dioxo-4-[1-pyridin-4-yl-meth-(Z)-ylidene]-imidazolidin-1-yl}-benzamide] reads 63 nM.
The same measure, in the same setting: the result for `O=C(NC1CCCCC1)c1ccc(N2C(=O)N/C(=C\c3ccncc3)C2=O)cc1` [Compound 51, N-Cyclohexyl-4-{2,5-dioxo-4-[1-pyndin-4-yl-meth-(Z)-ylidene]-imidazolidin-1-yl}-benzamide] reads 63 nM; that for `CC(C)(CO)CN1C(=O)N/C(=C\c2ccncc2)C1=O` [Compound 52, 3-(3-Hydroxy-2,2-dimethyl-propyl)-5-[1-pyridin-4-yl-meth-(Z)-ylidene]-imidazolidine-2,4-dione], 42 nM.
As to `O=C1N/C(=C\c2ccncc2)C(=O)N1C1CC(F)(F)C1` [Compound 53, 3-(3,3-Difluoro-cyclobutyl)-5-[1-pyridin-4-yl-meth-(Z)-ylidene]-imidazolidine-2,4-dione], the IC50 in test [1] came out at 50 nM; in test [2] it was 249 nM.
As for `CCOC(=O)C1CCN(C(=O)c2ccc(N3C(=O)N/C(=C\c4ccncc4)C3=O)cc2)CC1` [Compound 54, 1-(4-{2,5-Dioxo-4-[1-pyridin-4-yl-meth-(Z)-ylidene]-imidazotidin-l-yl}-benzoyl)-piperidine-4-carboxylic acid ethyl ester], the IC50 in test [1] amounted to 36 nM.
For `O=C1N/C(=C\c2ccncc2)C(=O)N1CC1(O)CCCCC1` [Compound 55, 3-(1-Hydroxy-cyclohexylmethyl)-5-[1-pyridin-4-yl-meth-(Z)-ylidene]-imidazotidine-2,4-dione], the figures for the IC50 in test [1] and in test [2] were 55 nM and 242 nM, respectively.
For the compound `O=C1N/C(=C\c2ccncc2)C(=O)N1CC1CCOCC1` [Compound 56, 5-[1-Pyridin-4-yl-meth-(Z)-ylidene]-3-(tetrahydro-pyran-4-ylmethyl)-imidazolidine-2,4-dione], the IC50 in test [1] worked out at 20 nM; in test [2] it was 137 nM.
As to `CC(C)(O)CCN1C(=O)N/C(=C\c2ccncc2)C1=O` [Compound 57, 3-(3-Hydroxy-3-methyl-butyl)-5-[1-pyridin-4-yl-meth-(Z)-ylidene] -imidazolidine-2,4-dione], the IC50 in test [1] was found to be 20 nM.
As for `O=C1N/C(=C\c2ccncc2)C(=O)N1CC1(O)CCCC1` [Compound 58, 3-(1-Hydroxy-cyclopentylmethyl)-5-[1-pyridin-4-yl-meth-(Z)-ylidene]-imidazolidine-2,4-dione], the IC50 in test [1] turned out to be 30 nM; in test [2] it was 246 nM.
Taken in the same sequence, the figures for `O=C1N/C(=C\c2ccncc2)C(=O)N1CC1(O)CCC1` [Compound 59, 3-(1-Hydroxy-cyclobutylmethyl)-5-[1-pyridin-4-yl-meth-(Z)-ylidene]-imidazolidine-2,4-dione] were 35 nM and 98.5 nM.
Regarding `O=C1N/C(=C\c2ccncc2)C(=O)N1CC1(CO)CCC1` [Compound 63, 3-(1-Hydroxymethyl-cyclobutylmethyl)-5-[1-pyridin-4-yl-meth-(Z)-ylidene]-imidazolidine-2,4-dione], the IC50 in test [1] came to 12 nM.
On the same count and under the same terms, as for `O=C1N/C(=C\c2ccncc2)C(=O)N1CC1(CO)CCCC1` [Compound 64, 3-(1-Hydroxymethyl-cyclopentylmethyl)-5-[1-pyridin-4-yl-meth-(Z)-ylidene]-imidazolidine-2,4-dione], the figure is 16 nM; as for `O=C1N/C(=C\c2ccncc2)C(=O)N1CCNC(=O)C(F)(F)F` [Compound 65, N-(2-{2,5-Dioxo-4-[1-pyridin-4-yl-meth-(Z)-ylidene]-imidazolidin-1-yl}-ethyl)-2,2,2-trifluoro-acetamide], 240 nM.
